We go through 11 molecules from publication PMC7581279 (Journal of medicinal chemistry, 2013).

Usually IC50 stands for the point on the concentration scale where inhibition reaches its midpoint.

Each structure is given as a SMILES string. Some results are limits rather than exact numbers.

Assay [1] has as its system HIV-1 (IIIB) in MT-4 cells. Particulars: HIV-1-induced cytopathic effect in MT-4 cells. For orientation: Protection from cytopathic effect is a common read-out in antiviral testing.
Assay [2] relates to RT-associated DNA polymerase function. Particulars: cited from earlier work.
For assay [3], the target named is recombinant HIV-1 IN ST activity (Human immunodeficiency virus type 1 group M subtype B, UniProt P04585). Put plainly: biochemical.
The target of assay [4] is HIV-1 RT-associated RNase H activity (Human immunodeficiency virus type 1 group M subtype B, UniProt P04585). Put plainly: biochemical.

`CCOC(=O)C(=O)CC(=O)/C=C/c1cccn1Cc1ccccc1` [7a, 6-[1-(Phenyl)methyl-1H-pyrrol-2-yl]-2,4-dioxo-5-hexenoic Acid Ethyl Ester]: the “activity in the CPE assay” value in assay [1] is on record as “antiviral”.

On to `CCOC(=O)C(=O)CC(=O)/C=C/c1cccn1Cc1ccccc1F` [7e, 6-[1-(2-Fluorophenyl)methyl-1H-pyrrol-2-yl]-2,4-dioxo-5-hexenoic Acid Ethyl Ester], for which the “activity in the CPE assay” value in assay [1] is reported as “antiviral”.

Consider `CCOC(=O)C(=O)CC(=O)/C=C/c1cccn1Cc1cccc(F)c1` [7f, 6-[1-(3-Fluorophenyl)methyl-1H-pyrrol-2-yl]-2,4-dioxo-5-hexenoic Acid Ethyl Ester], for which, in assay [1], the “activity in the CPE assay” value is “antiviral”. `CCOC(=O)C(=O)CC(=O)/C=C/c1cccn1Cc1ccc(F)cc1` [7g, 6-[1-(4-Fluorophenyl)methyl-1H-pyrrol-2-yl]-2,4-dioxo-5-hexenoic Acid Ethyl Ester]: in assay [1], the “activity in the CPE assay” value is reported as “antiviral”. The “activity against RT-associated DNA polymerase function” value in assay [2] is “inactive”. Turning to `CCOC(=O)C(=O)CC(=O)/C=C/c1cccn1Cc1ccc(C#N)cc1` [7l, 6-[1-(4-Cyanophenyl)methyl-1H-pyrrol-2-yl]-2,4-dioxo-5-hexenoic Acid Ethyl Ester], in assay [3], the concentration for half-maximal inhibition (IC50) was over 111 µM. `CCOC(=O)C(=O)CC(=O)/C=C/c1cccn1Cc1ccccc1OC` [7m, 6-[1-(2-Methoxyphenyl)methyl-1H-pyrrol-2-yl]-2,4-dioxo-5-hexenoic Acid Ethyl Ester] returned a half-inhibitory concentration (IC50) in assay [4] of over 100 µM.

Take `CCOC(=O)C(=O)CC(=O)/C=C/c1cccn1Cc1ccccc1OCC` [7o, 6-[1-(2-Ethoxyphenyl)methyl-1H-pyrrol-2-yl]-2,4-dioxo-5-hexenoic Acid Ethyl Ester]: the IC50 in assay [4] was over 100 µM. With `CCOC(=O)C(=O)CC(=O)/C=C/c1cccn1Cc1ccc(Cl)cc1Cl` [7w, 6-[1-(2,4-Dichlorophenyl)methyl-1H-pyrrol-2-yl]-2,4-dioxo-5-hexenoic Acid Ethyl Ester], the IC50 in assay [3] was over 111 µM.

For `O=C(/C=C/c1cccn1Cc1ccccc1)CC(=O)C(=O)O` [8a, 6-[1-(Phenyl)methyl-1H-pyrrol-2-yl]-2,4-dioxo-5-hexenoic Acid], the “activity in the CPE assay” value in assay [1] was “antiviral”. Take `O=C(/C=C/c1cccn1Cc1ccc(F)cc1)CC(=O)C(=O)O` [8g, 6-[1-(4-Fluorophenyl)methyl-1H-pyrrol-2-yl]-2,4-dioxo-5-hexenoic Acid]: the “activity in the CPE assay” value in assay [1] was “antiviral”. For `O=C(/C=C/c1cccn1Cc1ccc(Cl)cc1)CC(=O)C(=O)O` [8i, 6-[1-(4-Chlorophenyl)methyl-1H-pyrrol-2-yl]-2,4-dioxo-5-hexenoic Acid], the “activity in the CPE assay” value in assay [1] was “inactive”.
